Experimental data from patent US11040952B2, “Phthalazinone compound, method for preparation thereof, pharmaceutical composition thereof, and use thereof” (SHANGHAI INSTITUTE OF MATERIA MEDICA, CHINESE ACADEMY OF …, priority 2017, dated 2021).
Where two headings read alike, the source gives them in different places.

Assays:
HBV capsid = target: T1, HBV capsid (Hepatitis B virus genotype D subtype ayw, UniProt P03146); assay: HBV capsid assembly, non-denaturing agarose gel electrophoresis; format: cell-based; conditions: FIG. 1; for content of HBV DNA in the capsid: Southern blot with HBV-specific probes; for generation of abnormal capsid (electrophoretic migration): non-denaturing agarose gel, anti-HBcAg Western blot
T1 construct: expressed in transfected cells
T1 sequence (P03146 whole entry): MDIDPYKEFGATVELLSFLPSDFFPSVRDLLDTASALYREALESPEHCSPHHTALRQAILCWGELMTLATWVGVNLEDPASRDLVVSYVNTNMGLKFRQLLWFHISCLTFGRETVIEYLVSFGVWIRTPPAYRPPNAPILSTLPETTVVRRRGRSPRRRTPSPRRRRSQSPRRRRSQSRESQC
Description: 1×10^6 dispersed cells were added with […] of cell lysate (50 mM Tris-HCl pH 7.5, 1 mM EDTA, 0.5% Nonidet P-40), and lysed on ice for 15 min, with vortexing every 5 min to make sure that the cells were sufficiently lysed. The lysed cells were centrifuged at 10,000×g for 10 min at 4° C. to remove nuclei and cell debris. 20 μl of the cell lysate was added into the well of 1.2% or 1.8% agarose gel. Electrophoresis was run at 70V for 2.5 h at 4° C. […] After electrophoresis, the membrane-transferring was performed by siphon overnight. One sample was transferred to a nitrocellulose membrane (Amersham™ Hybond-ECL, GE), and the capsid was detected with anti-HBcAg antibody (Abcam) using Western blot method; another sample was in situ denatured with a denaturing solution (1.5 M NaCl, 0.5 M NaOH) for 45 min, neutralized with a neutralizing solution (1.5 M NaCl, 1 M Tris-HCl pH 7.4) for 45 min, and transferred to a nylon membrane (Amersham™ Hybond-N+, GE), and then the level of nucleic acid in the capsid was detected with HBV-specific probes by using Southern blot method.

HBV = HBV DNA content in the supernatant of cell culture (real-time PCR); format: cell-based, hepatitis B virus (HBV); conditions: inhibition of HBV DNA replication, HepG2.2.15 supernatant, 8 days
Method in brief: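 HepG2.2.15 cells stably carrying full-length HBV exposed to compounds for 8 days in DMEM with 10% FBS, medium renewed on day 4. Supernatant virion HBV DNA extracted and quantified by real-time PCR against a 1e^7-1e^4 IU/ml standard curve; IC50 calculated.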

[1] = MTT assay for cytotoxicity; format: cell-based, Human; conditions: human, HepG2.2.15 cells, half (50%) lethal concentration
Method in brief: (§1)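 HBV-transfected HepG2.2.15 cells were cultured with compound for 8 days at 37 °C in DMEM/10% FBS, with medium changed on day 4. Viability was read by MTT (4 h, then 12 h lysis, OD570) against control wells. CC50 is the concentration cutting viability by 50%.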

[2] = Tissue distribution in mice; format: in vivo; conditions: po 10 mg/kg; for concentration at 1 h / concentration at 3 h / concentration at 8 h: mouse
Description: 10 μl of a plasma and tissue sample was placed in a 1.5 ml centrifuge tube, added with 100 μl of an internal standard solution (5.00 ng/ml verapamil and 50.0 ng/ml Glibenclamide solution in acetonitrile), vortexed for 60 seconds, and then centrifuged for 3 min (at 12000 rpm); 75 μl of the supernatant was transferred to a 96-well plate loaded with an equal volume of water, and shaken for mixing well and then analyzed. The injection volume was 10 μl. Internal standard: an appropriate amount of verapamil and glibenclamide standards were dissolved and diluted in dimethyl sulfoxide (DMSO), shaken for mixing well, and prepared into a stock solution with a mass concentration of 2000 μg/ml, which was further diluted into internal standard working solutions of 5.00 ng/ml and 50.0 ng/ml. Stock solution: an appropriate amount of the compound was weighted and formulated into a 2.00 mg/ml stock solution with DMSO. Working solution: The stock solution was stepwisely diluted to obtain the solutions at each gradient concentration. 5.00 μl of reference standard working solution was added to 45.0 μl of a mice blank plasma and blank tissue. Then it was treated according to the method described in the section of “Sample pretreatment method”. Administration solution: a certain amount of a compound was precisely weighed and formulated into a 2.00 mg/ml milky white suspension in a ratio of 2.5% DMSO+97.5% (0.5% MC). Approximately 0.1 ml of orbital blood and liver was collected in EDTAK2 for anticoagulation from each animal that had been anesthetized with isoflurane. For the PO group, the blood was collected at 1 h, 3 h, and 8 h after administration of the test compound. After collection, the blood sample was analyzed by using comparative compounds I-70 and I-88.

HepG2.2.15 cells = assay: MTT assay for cytotoxicity; format: cell-based, Human; conditions: 8 days, half (50%) lethal concentration
Method in brief: as §1

[3] = Hepatitis B virus, HepG2.2.15, 192 h
[4] = liver, 1 h, read-out: Mean drug concentration, Liver
[5] = liver, 3 h, read-out: Mean drug concentration, Liver
[6] = plasma, 1 h, read-out: Mean drug concentration, Plasma
[7] = plasma, 3 h, read-out: Mean drug concentration, Plasma
[8] = plasma, 8 h, read-out: Mean drug concentration, Plasma
[9] = liver, 8 h, read-out: Mean drug concentration, Liver

In the case of `O=c1c2ccccc2c(-c2cccnc2F)nn1Cc1ccc(Cl)cc1` [Compound I-3], the “content of HBV DNA in the capsid” value (HBV capsid) is reported as “significantly reduced”, the “generation of abnormal capsid (electrophoretic migration)” value (from here on “generation of abnormal capsid”) (HBV capsid) is reported as “induce the generation of an abnormal capsid with faster electrophoretic migration speed” and the IC50 (HBV; [3]) is reported as 0.5 µM. For the same molecule, the CC50 at 8 days [1] was greater than 100 µM.
`Cc1ccc(-c2cc(C)c(=O)n(Cc3ccc(Cl)cc3)n2)c(F)n1` [I-88, reference compound] showed a concentration at 1 h [2, 4] of 34.2 ng/g, a concentration at 3 h [2, 5] of 9.64 ng/g and a concentration at 1 h [2, 6] of 169 ng/mL. The concentration at 3 h [2, 7] was 180 ng/mL, the concentration at 8 h [2, 8] was 0.993 ng/mL and the “Mean drug concentration, Liver” value ([2]; 8 h) was “BLQ”.
Molecule `Cc1ccc(-c2nn(Cc3ccc(Cl)cc3)c(=O)c3ccccc23)c(F)n1` [Compound I-10] has a concentration at 1 h [2, 4] of 476 ng/g, a concentration at 3 h [2, 5] of 318 ng/g and a concentration at 8 h [2, 9] of 2.91 ng/g. For the same molecule, the concentration at 1 h [2, 6] was 61 ng/mL, the concentration at 3 h [2, 7] was 12.5 ng/mL and the liver targeting [2] was “good liver targeting in mice”. The “Mean drug concentration, Plasma” value ([2]; 8 h) was “BLQ”, the “content of HBV DNA in the capsid” value (HBV capsid) was “significantly reduced” and the “generation of abnormal capsid” value (HBV capsid) was “induce the generation of an abnormal capsid with faster electrophoretic migration speed”. The IC50 (HBV; [3]) was 0.1 µM and the CC50 at 8 days [1] was 81.8 µM.
Work on `Nc1ccc(-c2nn(Cc3ccc(Cl)cc3)c(=O)c3ccccc23)c(F)n1` [Compound I-11] yielded a concentration at 1 h [2, 4] of 1220 ng/g, a concentration at 3 h [2, 5] of 1410 ng/g and a concentration at 8 h [2, 9] of 815 ng/g. It also gave a concentration at 1 h [2, 6] of 33.3 ng/mL, a concentration at 3 h [2, 7] of 32.5 ng/mL and a concentration at 8 h [2, 8] of 23 ng/mL. The liver targeting [2] was “good liver targeting in mice”, the “content of HBV DNA in the capsid” value (HBV capsid) was “significantly reduced” and the “generation of abnormal capsid” value (HBV capsid) was “induce the generation of an abnormal capsid with faster electrophoretic migration speed”. For the same molecule, the IC50 (HBV; [3]) was 0.9 µM and the CC50 at 8 days [1] was 22.6 µM.
For `[2H]C(c1ccc(Cl)cc1)n1nc(-c2ccc(F)nc2F)c2ccccc2c1=O` (stereo not drawn) [Compound I-26], the “content of HBV DNA in the capsid” value (HBV capsid) was “significantly reduced”, the “generation of abnormal capsid” value (HBV capsid) was “induce the generation of an abnormal capsid with faster electrophoretic migration speed” and the IC50 (HBV; [3]) was 0.9 µM. The CC50 at 8 days [1] was greater than 100 µM.
`Cc1cc(-c2ccc(F)nc2F)nn(Cc2ccc(Cl)cc2)c1=O` [I-70, reference compound] showed a concentration at 1 h [2, 6] of 161 ng/mL, a concentration at 3 h [2, 7] of 71.7 ng/mL and a concentration at 8 h [2, 8] of 17.3 ng/mL. For the same molecule, the “Mean drug concentration, Liver” value ([2]; 1 h) was “BLQ^a”, the “Mean drug concentration, Liver” value ([2]; 3 h) was “BLQ” and the “Mean drug concentration, Liver” value ([2]; 8 h) was “BLQ”.
With `CNc1ccc(-c2nn(Cc3ccc(Cl)cc3)c(=O)c3ccccc23)c(F)n1` [Compound I-12] the “content of HBV DNA in the capsid” value (HBV capsid) was “significantly reduced”, the “generation of abnormal capsid” value (HBV capsid) was “induce the generation of an abnormal capsid with faster electrophoretic migration speed” and the IC50 (HBV; [3]) was 0.6 µM. For the same molecule, the CC50 at 8 days [1] was 15.7 µM.
Molecule `CN(C)CCNc1ccc(-c2nn(Cc3ccc(C#N)cc3)c(=O)c3ccccc23)c(F)n1` [IV-37] has an IC50 (HBV) of 2.18 µM and a CC50 (HepG2.2.15 cells) of 86.5 µM.
In the case of `COc1ccc(-c2nn(Cc3ccc(Cl)cc3)c(=O)c3ccccc23)c(F)n1` [Compound I-4], the IC50 (HBV) is reported as 3.1 µM and the CC50 (HepG2.2.15 cells) is reported as greater than 100 µM.
`N#Cc1ccc(Cn2nc(-c3ccc(F)nc3F)c3ccccc3c2=O)cc1` [IV-5] gave a concentration at 1 h [2, 4] of 1030 ng/g, a concentration at 3 h [2, 5] of 1050 ng/g and a concentration at 8 h [2, 9] of 1190 ng/g. It also gave a concentration at 1 h [2, 6] of 154 ng/mL, a concentration at 3 h [2, 7] of 63.2 ng/mL and a concentration at 8 h [2, 8] of 80.1 ng/mL. For the same molecule, the liver targeting [2] was “good liver targeting in mice”, the IC50 (HBV; [3]) was 0.12 µM and the CC50 at 8 days [1] was greater than 100 µM.
With `[2H]C(c1ccc(Cl)cc1)n1nc(-c2ccc(C)nc2F)c2ccccc2c1=O` (stereo not drawn) [Compound I-24] the “content of HBV DNA in the capsid” value (HBV capsid) was “significantly reduced”, the “generation of abnormal capsid” value (HBV capsid) was “induce the generation of an abnormal capsid with faster electrophoretic migration speed” and the IC50 (HBV; [3]) was 0.4 µM. The CC50 at 8 days [1] was greater than 100 µM.
Work on `COc1ccc(-c2nn(Cc3ccc(Cl)cc3)c(=O)c3ccccc23)c(F)n1` [Compound I-20] yielded an IC50 (HBV) of 1.3 µM and a CC50 (HepG2.2.15 cells) of 33.3 µM.
With `O=c1c2ccccc2c(-c2ccc(F)nc2F)nn1Cc1ccc(Cl)cc1` [Compound I-9] the “content of HBV DNA in the capsid” value (HBV capsid) was “significantly reduced”, the “generation of abnormal capsid” value (HBV capsid) was “induce the generation of an abnormal capsid with faster electrophoretic migration speed” and the IC50 (HBV; [3]) was 0.3 µM. The CC50 at 8 days [1] was 40.7 µM.
`N#Cc1ccc(Cn2nc(-c3ccc(C(F)(F)F)nc3F)c3ccccc3c2=O)cc1` [IV-15] gave a concentration at 1 h [2, 4] of 7270 ng/g, a concentration at 3 h [2, 5] of 4460 ng/g and a concentration at 8 h [2, 9] of 2800 ng/g. For the same molecule, the concentration at 1 h [2, 6] was 549 ng/mL, the concentration at 3 h [2, 7] was 437 ng/mL and the concentration at 8 h [2, 8] was 257 ng/mL. For the same molecule, the liver targeting [2] was “good liver targeting in mice”, the IC50 (HBV; [3]) was 0.27 µM and the CC50 at 8 days [1] was greater than 100 µM.
